Data taken from patent publication US20140162980A1, “NOVEL MICROBIOCIDAL DIOXIME ETHER DERIVATIVES” (SYNGENTA CROP PROTECTION LLC, priority 2010, published 2014).

Legend:
[1] = test system: Botryotinia fuckeliana (Botrytis cinerea); assay: Botryotinia fuckeliana (Botrytis cinerea) / liquid culture (gray mould); format: cell-based; settings: Vogels broth, 24° C., 3-4 days after application, read-out: control of Botryotinia fuckeliana (inhibition of growth, photometrically)
Description: Botryotinia Fuckeliana (Botrytis cinerea)/Liquid Culture (Gray Mould): Conidia of the fungus from cryogenic storage were directly mixed into nutrient broth (Vogels broth). After placing a DMSO solution of test compound into a 96-well microtiter plate at an application rate 200 ppm, the nutrient broth containing the fungal spores was added. The test plates were incubated at 24° C. and the inhibition of growth was determined photometrically 3-4 days after application.

Sclerotinia sclerotiorum = Sclerotinia sclerotiorum / liquid culture (cottony rot); format: cell-based; settings: PDB potato dextrose broth, 24° C., 3-4 days after application, read-out: control of Sclerotinia sclerotiorum (inhibition of growth, photometrically)
Description: Sclerotinia Sclerotiorum/Liquid Culture (Cottony Rot) Mycelia fragments of a newly grown liquid culture of the fungus are directly mixed into nutrient broth (PDB potato dextrose broth). After placing a (DMSO) solution of test compound into a microtiter plate at an application rate 200 ppm (96-well format) the nutrient broth containing the fungal material is added. The test plates are incubated at 24° C. and the inhibition of growth is determined photometrically 3-4 days after application.

[2] = test system: Puccinia recondita f. sp. tritici; assay: Puccinia recondita f. sp. tritici / wheat / leaf disc preventative (brown rust); format: in vivo; settings: foliar, wheat leaf segments cv Kanzler, inoculated 1 day after application, assessed 7-9 days after application, read-out: control of Puccinia recondita f. sp. tritici, preventative (percent disease control compared to untreated)
Description: Puccinia Recondita f. Sp. Tritici/Wheat/Leaf Disc Preventative (Brown Rust): Wheat leaf segments cultivated variety (cv) Kanzler were placed on agar in 24-well plates and sprayed with formulated test compound diluted in water at an application rate of 200 ppm. The leaf disks were inoculated with a spore suspension of the fungus 1 day after application. The inoculated leaf segments were incubated at 19° C. and 75% relative humidity under a light regime of 12/12 h (light/dark) in a climate cabinet and the activity of a compound was assessed as percent disease control compared to untreated when an appropriate level of disease damage appears in untreated check leaf segments (7-9 days after application).

[3] = test system: Phaeosphaeria nodorum (Septoria nodorum); assay: Phaeosphaeria nodorum (Septoria nodorum) / wheat / leaf disc preventative (glume blotch); format: in vivo; settings: Parastagonospora nodorum, foliar, wheat leaf segments cv Kanzler, inoculated 2 days after application, assessed 5-7 days after application, read-out: control of Phaeosphaeria nodorum (percent disease control compared to untreated)
Description: Phaeosphaeria Nodorum (Septoria nodorum)/Wheat/Leaf Disc Preventative (Glume Blotch): Wheat leaf segments cv Kanzler were placed on agar in a 24-well plate and sprayed with formulated test compound diluted in water at an application rate of 200 ppm. The leaf disks are inoculated with a spore suspension of the fungus 2 days after application. The inoculated test leaf disks are incubated at 20° C. and 75% relative humidity under a light regime of 12/12 h (light/dark) in a climate cabinet and the activity of a compound is assessed as percent disease control compared to untreated when an appropriate level of disease damage appears in untreated check leaf disks (5-7 days after application).

[4] = test system: Magnaporthe grisea (Pyricularia oryzae); assay: whole plant or invertebrate; format: in vivo; settings: foliar, read-out: control of Magnaporthe grisea (percent disease control compared to untreated)
Pyrenophora teres = Pyrenophora teres / barley / leaf disc preventative (net blotch); format: in vivo; settings: foliar, barley leaf segments cv Hasso, inoculated two days after application, assessed 5-7 days after application, read-out: control of Pyrenophora teres (disease control compared to untreated)
Description: Pyrenophora Teres/Barley/Leaf Disc Preventative (Net Blotch): Barley leaf segments cv Hasso are placed on agar in a 24-well plate and sprayed with formulated test compound diluted in water at an application rate of 200 ppm. The leaf segments are inoculated with a spore suspension of the fungus two days after application of the test solution. The inoculated leaf segments are incubated at 20° C. and 65% relative humidity under a light regime of 12/12 h (light/dark) in a climate cabinet and the activity of a compound is assessed as disease control compared to untreated when an appropriate level of disease damage appears in untreated check leaf segments (5-7 days after application).

Pythium ultimum = Pythium ultimum / liquid culture (seedling damping off); format: cell-based; settings: Globisporangium ultimum, PDB potato dextrose broth, 24° C., 2-3 days after application, read-out: control of Pythium ultimum (inhibition of growth, photometrically)
Description: Pythium Ultimum/Liquid Culture (Seedling Damping Off): Mycelia fragments and oospores of a newly grown liquid culture of the fungus were directly mixed into nutrient broth (PDB potato dextrose broth). After placing a DMSO solution of test compound into a 96 well microtiter plate at an application rate 200 ppm, the nutrient broth containing the fungal mycelia/spore mixture was added. The test plates were incubated at 24° C. and the inhibition of growth was determined photometrically 2-3 days after application.

[5] = test system: Blumeria graminis f. sp. tritici (Erysiphe graminis f. sp. tritici); assay: Blumeria graminis f. sp. tritici / wheat / leaf disc preventative (powdery mildew on wheat); format: in vivo; settings: foliar, wheat leaf segments cv. Kanzler, inoculated 1 day after application, assessed 6-8 days after application, read-out: control of Blumeria graminis (percent disease control compared to untreated)
Description: Blumeria Graminis f. Sp. Tritici (Erysiphe Graminis f. Sp. Tritici)/Wheat/Leaf Disc Preventative (Powdery Mildew on Wheat):
Wheat leaf segments cv. Kanzler were placed on agar in a 24-well plate and sprayed with the formulated test compound diluted in water at an application rate of 200 ppm. The leaf disks were inoculated by shaking powdery mildew infected plants above the test plates 1 day after application. The inoculated leaf disks were incubated at 20° C. and 60% relative humidity under a light regime of 24 h darkness followed by 12 h/12 h (dark/light) in a climate chamber and the activity of a compound was assessed as percent disease control compared to untreated when an appropriate level of disease damage appears on untreated check leaf segments (6-8 days after application). The following compounds gave at least 80% control of Blumeria graminis: […]

[6] = test system: Puccinia recondita f. sp. tritici; assay: Puccinia recondita f. sp. tritici / wheat / leaf disc curative (brown rust); format: in vivo; settings: foliar, 200 ppm applied 1 day after inoculation, wheat leaf segments cv Kanzler, assessed 6-8 days after application, read-out: control of Puccinia recondita f. sp. tritici, curative (percent disease control compared to untreated)
Description: Puccinia Recondita f. Sp. Tritici/Wheat/Leaf Disc Curative (Brown Rust): Wheat leaf segments cv Kanzler were placed on agar in 24-well plates. The leaf segments were inoculated with a spore suspension of the fungus. The plates were stored in darkness at 19° C. and 75% relative humidity. The formulated test compound diluted in water was applied at an application rate of 200 ppm 1 day after inoculation.

Alternaria solani = Alternaria solani / tomato / leaf disc (early blight); format: in vivo; settings: foliar, tomato leaf disks cv. Baby, inoculated 2 days after application, assessed 5-7 days after application, read-out: control of Alternaria solani (percent disease control compared to untreated)
Description: Alternaria Solani/Tomato/Leaf Disc (Early Blight): Tomato leaf disks cv. Baby are placed on agar in multiwell plates (24-well format) and sprayed with the formulated test compound diluted in water at an application rate of 200 ppm. The leaf disks are inoculated with a spore suspension of the fungus 2 days after application. The inoculated leaf disks are incubated at 23° C./21° C.

Plasmopara viticola = assay: whole plant or invertebrate; format: in vivo; settings: foliar, read-out: control of Plasmopara viticola (percent disease control compared to untreated)
[7] = test system: Thanatephorus cucumeris (Rhizoctonia solani); assay: Thanatephorus cucumeris (Rhizoctonia solani) / liquid culture (foot rot, damping-off); format: cell-based; settings: PDB potato dextrose broth, 24° C., 3-4 days after application, read-out: control of Thanatephorus cucumeris (inhibition of growth, photometrically)
Description: Thanatephorus Cucumeris (Rhizoctonia solani)/Liquid Culture (Foot Rot, Damping-Off): Mycelia fragments of a newly grown liquid culture of the fungus are directly mixed into nutrient broth (PDB potato dextrose broth). After placing a DMSO solution of the test compounds into a 96-well microtiter plate at an application rate 200 ppm, the nutrient broth containing the fungal material was added. The test plates were incubated at 24° C. and the inhibition of growth was determined photometrically 3-4 days after application.

Phytophthora infestans = assay: whole plant or invertebrate; format: in vivo; settings: in Solanum lycopersicum, foliar, read-out: control of Phytophthora infestans (percent disease control compared to untreated)

SMILES	inhibition at 200 ppm [1] [%]	inhibition at 200 ppm (Sclerotinia sclerotiorum) [%]	pest or weed control at 200 ppm [2] [%]	pest or weed control at 200 ppm [3] [%]	pest or weed control at 200 ppm [4] [%]	pest or weed control at 200 ppm (Pyrenophora teres) [%]	inhibition at 200 ppm (Pythium ultimum) [%]	pest or weed control at 200 ppm [5] [%]	pest or weed control at 200 ppm [6] [%]	pest or weed control at 200 ppm (Alternaria solani) [%]	pest or weed control at 200 ppm (Plasmopara viticola) [%]	inhibition at 200 ppm [7] [%]	pest or weed control at 200 ppm (Phytophthora infestans) [%]	melting point [°C]
Cc1ccc2c(n1)/C(=N/OCC(C)(C)CO/N=C1\CCCc3c(CF)cc(C)nc31)CCC2 [P.44]	≥ 80	≥ 80	≥ 80	≥ 80	≥ 80	≥ 80	≥ 80	≥ 80	≥ 80					
Cc1ccc2c(n1)/C(=N/OCCCO/N=C1\CCCc3c1nc1ccccc1c3C)CCC2 [P.37]	≥ 80	≥ 80	≥ 80	≥ 80	≥ 80	≥ 80	≥ 80	≥ 80	≥ 80	≥ 80	≥ 80	≥ 80		
c1c2c(nc3c1CCC/C3=N\OCC1(CO/N=C3\CCCc4cc5c(nc43)CCCC5)CC1)CCCC2 [P.49]	≥ 80	≥ 80	≥ 80	≥ 80	≥ 80			≥ 80				≥ 80	≥ 80	
Cc1ccc2c(n1)/C(=N/OCC(C)(C)CO/N=C1\CCCc3c1nc1ccccc1c3C)CCC2 [P.38]	≥ 80	≥ 80	≥ 80	≥ 80	≥ 80	≥ 80	≥ 80	≥ 80	≥ 80	≥ 80	≥ 80	≥ 80	≥ 80	
c1c2c(nc3c1CCC/C3=N\OCCCO/N=C1\CCCc3cc4c(nc31)CCCC4)CCCC2 [P.51]	≥ 80	≥ 80	≥ 80	≥ 80	≥ 80	≥ 80	≥ 80	≥ 80				≥ 80	≥ 80	
Clc1ccc2c(n1)/C(=N/OCC1(CO/N=C3\CCc4ccc(Cl)nc43)CC1)CC2 [P.21]														170 to 173
Cc1ccc2c(n1)/C(=N/OCC(C)(C)CO/N=C1\CCCc3cc4c(nc31)CCCC4)CCC2 [P.40]	≥ 80	≥ 80	≥ 80	≥ 80	≥ 80	≥ 80	≥ 80	≥ 80	≥ 80	≥ 80	≥ 80	≥ 80	≥ 80	
c1ccc(-c2c3c(nc4ccccc24)/C(=N/OCCCO/N=C2\CCCc4c2nc2ccccc2c4-c2ccccc2)CCC3)cc1 [P.26]														205 to 210
Cc1ccc2c(n1)/C(=N/OCCCO/N=C1\CCCc3cc4c(nc31)CCCC4)CCC2 [P.39]	≥ 80	≥ 80	≥ 80	≥ 80	≥ 80	≥ 80	≥ 80	≥ 80	≥ 80	≥ 80	≥ 80	≥ 80	≥ 80	
